Data reported in US20210379543A1, “PROCESS FOR PRODUCING A NANO-TAN IIA MICROEMULSION SYSTEM” (Wakamono Corporation, priority 2021, published 2021).

Assay: Water solubility / water-dispersability, including FIG. 1 comparison
Format: physicochemical
Conditions: dispersed in water, bottle A vs bottle B

Water-dispersability (FIG. 1): insoluble in water
SMILES: Cc1coc2c1C(=O)C(=O)c1c-2ccc2c1CCCC2(C)C [known 90% Tan IIA, Tanshinone IIA]
